Entries after “also recorded” stand apart in the source; their conditions may differ.
System: Ba
Experiment: Phase 2a study: urinary Ba (MicroVue Ba Enzyme Immunoassay)
Assay type: in vivo, human
Settings: for Urine Ba / Ba/ALB / Ba/Cr: 200 mg TID; for Ba/ALB GEOMEAN / Ba/ALB MEAN / Ba/Cr GEOMEAN / Ba/Cr MEAN / Urine Ba MEAN / Urine Ba GEOMEAN: patients A-F

In the case of `CC(=O)c1nn(CC(=O)N2C[C@H](F)C[C@H]2C(=O)Nc2cccc(Br)n2)c2ccc(-c3cnc(C)nc3)cc12` [Compound 1, (2S,4R)-1-(2-(3-acetyl-5-(2-methylpyrimidin-5-yl)-1H-indazol-1-yl)acetyl)-N-(6-bromopyridin-2-yl)-4-fluoropyrrolidine-2-carboxamide], the “Urine Ba” value (Patient D, Day 21 Taper) is reported as 18.6 ng/mL, the Ba/ALB (Patient D, Follow-Up Day 24) is reported as 14.9 ng/mg and the Ba/Cr (Patient D, Follow-Up Day 24) is reported as 4.2 µg/mmol. The “Urine Ba” value (Patient D, Follow-Up Day 24) was 28.7 ng/mL, the Ba/ALB (Patient D, Follow-Up Day 28) was 10.8 ng/mg and the Ba/Cr (Patient D, Follow-Up Day 28) was 6.2 µg/mmol. For the same compound, the “Urine Ba” value (Patient D, Follow-Up Day 28) was 30.0 ng/mL, the Ba/ALB (Patient D, Follow-Up Day 49) was 3.8 ng/mg and the Ba/Cr (Patient D, Follow-Up Day 49) was 2.4 µg/mmol. For the same compound, the “Urine Ba” value (Patient D, Follow-Up Day 49) was 9.4 ng/mL, the Ba/ALB (Patient D, Screen) was 19.2 ng/mg and the Ba/Cr (Patient D, Screen) was 11.1 µg/mmol. For the same compound, the “Urine Ba” value (Patient D, Screen) was 84.4 ng/mL, the Ba/ALB (Patient E, Day 1/0 Hour) was 33.5 ng/mg and the Ba/Cr (Patient E, Day 1/0 Hour) was 14.2 µg/mmol. The “Urine Ba” value (Patient E, Day 1/0 Hour) was 252 ng/mL, the Ba/ALB (Patient E, Day 4) was 14.7 ng/mg and the Ba/Cr (Patient E, Day 4) was 6.2 µg/mmol. The “Urine Ba” value (Patient E, Day 4) was 129 ng/mL, the Ba/ALB (Patient E, Day 7/0 Hour) was 17.3 ng/mg and the Ba/Cr (Patient E, Day 7/0 Hour) was 9.2 µg/mmol. For the same compound, the “Urine Ba” value (Patient E, Day 7/0 Hour) was 142 ng/mL, the Ba/ALB (Patient E, Day 10) was 12.8 ng/mg and the Ba/Cr (Patient E, Day 10) was 8.0 µg/mmol. The “Urine Ba” value (Patient E, Day 10) was 106 ng/mL, the Ba/ALB (Patient E, Day 14) was 6.9 ng/mg and the Ba/Cr (Patient E, Day 14) was 1.8 µg/mmol. For the same compound, the “Urine Ba” value (Patient E, Day 14) was 41 ng/mL, the Ba/ALB (Patient E, Day 15 Taper) was 3.6 ng/mg and the Ba/Cr (Patient E, Day 15 Taper) was 1.2 µg/mmol. The “Urine Ba” value (Patient E, Day 15 Taper) was 11 ng/mL, the Ba/ALB (Patient E, Day 16 Taper) was 7.2 ng/mg and the Ba/Cr (Patient E, Day 16 Taper) was 2.0 µg/mmol. For the same compound, the “Urine Ba” value (Patient E, Day 16 Taper) was 20 ng/mL, the Ba/ALB (Patient E, Day 17 Taper) was 12.7 ng/mg and the Ba/Cr (Patient E, Day 17 Taper) was 6.0 µg/mmol. The “Urine Ba” value (Patient E, Day 17 Taper) was 47 ng/mL, the Ba/ALB (Patient E, Day 21 Taper) was 21.6 ng/mg and the Ba/Cr (Patient E, Day 21 Taper) was 5.5 µg/mmol. The “Urine Ba” value (Patient E, Day 21 Taper) was 42 ng/mL, the Ba/ALB (Patient E, Follow-Up Day 24) was 41.2 ng/mg and the Ba/Cr (Patient E, Follow-Up Day 24) was 12.5 µg/mmol. The “Urine Ba” value (Patient E, Follow-Up Day 24) was 156 ng/mL, the Ba/ALB (Patient E, Follow-Up Day 28) was 46.1 ng/mg and the Ba/Cr (Patient E, Follow-Up Day 28) was 14.1 µg/mmol. For the same compound, the “Urine Ba” value (Patient E, Follow-Up Day 28) was 234 ng/mL, the Ba/ALB (Patient E, Follow-Up Day 49) was 40.0 ng/mg and the Ba/Cr (Patient E, Follow-Up Day 49) was 13.1 µg/mmol. The “Urine Ba” value (Patient E, Follow-Up Day 49) was 207 ng/mL, the Ba/ALB (Patient F, Day 1/0 Hour) was 25.9 ng/mg and the Ba/Cr (Patient F, Day 1/0 Hour) was 7.6 µg/mmol. The “Urine Ba” value (Patient F, Day 1/0 Hour) was 74.9 ng/mL, the Ba/ALB (Patient F, Day 4) was 7.6 ng/mg and the Ba/Cr (Patient F, Day 4) was 1.2 µg/mmol. For the same compound, the “Urine Ba” value (Patient F, Day 4) was 5.7 ng/mL, the Ba/ALB (Patient F, Day 7/0 Hour) was 5.7 ng/mg and the Ba/Cr (Patient F, Day 7/0 Hour) was 0.5 µg/mmol. The “Urine Ba” value (Patient F, Day 7/0 Hour) was 2.1 ng/mL, the “Urine Ba” value (Patient F, Day 10) was 2.1 ng/mL and the Ba/ALB (Patient F, Day 14) was 5.8 ng/mg. The Ba/Cr (Patient F, Day 14) was 1.1 µg/mmol, the “Urine Ba” value (Patient F, Day 14) was 9.8 ng/mL and the Ba/ALB (Patient F, Day 15 Taper) was 0.6 ng/mg. The Ba/Cr (Patient F, Day 15 Taper) was 0.5 µg/mmol, the “Urine Ba” value (Patient F, Day 15 Taper) was 2.8 ng/mL and the Ba/ALB (Patient F, Day 16 Taper) was 2.6 ng/mg. The Ba/Cr (Patient F, Day 16 Taper) was 0.6 µg/mmol, the “Urine Ba” value (Patient F, Day 16 Taper) was 2.2 ng/mL and the Ba/ALB (Patient F, Day 17 Taper) was 1.6 ng/mg. The Ba/Cr (Patient F, Day 17 Taper) was 0.7 µg/mmol, the “Urine Ba” value (Patient F, Day 17 Taper) was 6.9 ng/mL and the Ba/ALB (Patient F, Day 21 Taper) was 1.5 ng/mg. The Ba/Cr (Patient F, Day 21 Taper) was 0.5 µg/mmol, the “Urine Ba” value (Patient F, Day 21 Taper) was 6.6 ng/mL and the Ba/ALB (Patient F, Follow-Up Day 24) was 1.5 ng/mg. The Ba/Cr (Patient F, Follow-Up Day 24) was 0.4 µg/mmol, the “Urine Ba” value (Patient F, Follow-Up Day 24) was 2.2 ng/mL and the Ba/ALB (Patient F, Follow-Up Day 28) was 2.5 ng/mg. The Ba/Cr (Patient F, Follow-Up Day 28) was 0.6 µg/mmol, the “Urine Ba” value (Patient F, Follow-Up Day 28) was 2.8 ng/mL and the Ba/Cr (Patient F, Follow-Up Day 49) was 8.2 µg/mmol. For the same compound, the “Urine Ba” value (Patient F, Follow-Up Day 49) was 44.4 ng/mL, the “Ba/ALB GEOMEAN” value (Day 1/0 Hour) was 22.6 ng/mg and the “Ba/ALB MEAN” value (Day 1/0 Hour) was 53.4 ng/mg. For the same compound, the “Ba/Cr GEOMEAN” value (Day 1/0 Hour) was 5.7 µg/mmol, the “Ba/Cr MEAN” value (Day 1/0 Hour) was 26.7 µg/mmol and the “Urine Ba MEAN” value (Day 1/0 Hour) was 197 ng/mL. The “Ba/ALB GEOMEAN” value (Day 4) was 7.8 ng/mg, the “Ba/ALB MEAN” value (Day 4) was 13.8 ng/mg and the “Ba/Cr GEOMEAN” value (Day 4) was 1.4 µg/mmol. For the same compound, the “Ba/Cr MEAN” value (Day 4) was 3.8 µg/mmol, the “Urine Ba GEOMEAN” value (Day 4) was 9.1 ng/mL and the “Urine Ba MEAN” value (Day 4) was 52 ng/mL. For the same compound, the “Ba/ALB GEOMEAN” value (Day 7/0 Hour) was 8.9 ng/mg, the “Ba/ALB MEAN” value (Day 7/0 Hour) was 13.4 ng/mg and the “Ba/Cr GEOMEAN” value (Day 7/0 Hour) was 1.5 µg/mmol. For the same compound, the “Ba/Cr MEAN” value (Day 7/0 Hour) was 4.0 µg/mmol, the “Urine Ba GEOMEAN” value (Day 7/0 Hour) was 7.9 ng/mL and the “Urine Ba MEAN” value (Day 7/0 Hour) was 51 ng/mL. The “Urine Ba GEOMEAN” value (Day 10) was 5.0 ng/mL, the “Urine Ba MEAN” value (Day 10) was 28 ng/mL and the “Ba/ALB GEOMEAN” value (Day 15 Taper) was 4.9 ng/mg. For the same compound, the “Ba/ALB MEAN” value (Day 15 Taper) was 13.4 ng/mg, the “Ba/Cr GEOMEAN” value (Day 15 Taper) was 1.2 µg/mmol and the “Ba/Cr MEAN” value (Day 15 Taper) was 4.1 µg/mmol. For the same compound, the “Urine Ba GEOMEAN” value (Day 15 Taper) was 6.8 ng/mL, the “Urine Ba MEAN” value (Day 15 Taper) was 41 ng/mL and the “Ba/ALB GEOMEAN” value (Day 17 Taper) was 6.9 ng/mg. For the same compound, the “Ba/ALB MEAN” value (Day 17 Taper) was 15.4 ng/mg, the “Ba/Cr GEOMEAN” value (Day 17 Taper) was 1.6 µg/mmol and the “Ba/Cr MEAN” value (Day 17 Taper) was 4.2 µg/mmol. For the same compound, the “Urine Ba GEOMEAN” value (Day 17 Taper) was 9.5 ng/mL, the “Urine Ba MEAN” value (Day 17 Taper) was 41 ng/mL and the “Ba/ALB MEAN” value (Day 21 Taper) was 24.5 ng/mg. The “Ba/Cr GEOMEAN” value (Day 21 Taper) was 2.6 µg/mmol, the “Ba/Cr MEAN” value (Day 21 Taper) was 6.0 µg/mmol and the “Urine Ba GEOMEAN” value (Day 21 Taper) was 17.2 ng/mL. The “Urine Ba MEAN” value (Day 21 Taper) was 46 ng/mL, the “Ba/ALB MEAN” value (Follow-Up Day 24) was 38.5 ng/mg and the “Ba/Cr GEOMEAN” value (Follow-Up Day 24) was 3.0 µg/mmol. The “Ba/Cr MEAN” value (Follow-Up Day 24) was 11.6 µg/mmol, the “Urine Ba GEOMEAN” value (Follow-Up Day 24) was 18.4 ng/mL and the “Urine Ba MEAN” value (Follow-Up Day 24) was 92 ng/mL. The “Ba/ALB GEOMEAN” value (Follow-Up Day 28) was 17.4 ng/mg, the “Ba/ALB MEAN” value (Follow-Up Day 28) was 34.3 ng/mg and the “Ba/Cr GEOMEAN” value (Follow-Up Day 28) was 3.8 µg/mmol. The “Ba/Cr MEAN” value (Follow-Up Day 28) was 9.3 µg/mmol, the “Urine Ba GEOMEAN” value (Follow-Up Day 28) was 24.5 ng/mL and the “Urine Ba MEAN” value (Follow-Up Day 28) was 90 ng/mL. The “Ba/ALB GEOMEAN” value (Follow-Up Day 49) was 20.7 ng/mg, the “Ba/ALB MEAN” value (Follow-Up Day 49) was 143.0 ng/mg and the “Ba/Cr GEOMEAN” value (Follow-Up Day 49) was 3.9 µg/mmol. The “Ba/Cr MEAN” value (Follow-Up Day 49) was 22.6 µg/mmol, the “Urine Ba GEOMEAN” value (Follow-Up Day 49) was 27.2 ng/mL and the “Urine Ba MEAN” value (Follow-Up Day 49) was 334 ng/mL. The “Urinary Ba levels” value (two-week treatment) was “reduced significantly; also recorded: reduced in all patients” and the “Urinary Ba levels normalized to urinary creatinine or albumin” value (two-week treatment) was “reduced significantly”.

— patent publication US20210215714A1, “COMPLEMENT ALTERNATIVE PATHWAY-ASSOCIATED NEPHROPATHY BIOMARKERS” (Achillion Pharmaceuticals, Inc., priority 2018, published 2021)
